Test results from patent US11584961B2, “Biomarkers for inflammatory skin disease” (Incyte Corporation, priority 2018, dated 2023).
Values joined by “and” are separate entries in the source; they are usually repeats but may differ in a detail not shown here. Identical values can stand only once. “Also recorded” adds a separate entry of the source.

Tests used:
[1] = test system: mild to moderate plaque psoriasis; test: Study of topical ruxolitinib (INCB018424) cream in plaque psoriasis, PASI response at day 28 (Example 1); format: in vivo, human; settings: for Classification: therapeutic response at day 28, individual subjects; for % Change in PASI at Day 28: individual subjects
[2] = test system: mild to moderate plaque psoriasis; test: Double-blind, randomized, vehicle controlled dose ranging study of topical ruxolitinib (INCB018424) in plaque psoriasis, PASI response at day 28 and day 84 (Example 4); format: in vivo, human; settings: for Classification: therapeutic response at day 84, individual subjects; for % Change in PASI at Day 28 / % Change in PASI at Day 84: individual subjects

Question: What does the source list for `N#CC[C@H](C1CCCC1)n1cc(-c2ncnc3[nH]ccc23)cn1` [INCB018424, (3R)-3-cyclopentyl-3-[4-(7H-pyrrolo[2,3-d]pyrimidin-4-yl)-1H-pyrazol-1-yl]propanenitrile]?
Answer: Classification ([1]; 1.0% BID): Responder; Classification ([1]; 1.5% BID): Responder; also recorded: Non-Responder; Classification ([1]; 1.5% QD): Non-Responder; also recorded: Responder; % Change in PASI at Day 28 ([1]; topical cream 1.0% BID): −60.0% and −66.7% (2×); % Change in PASI at Day 28 ([1]; topical cream 1.5% BID): −85.7% and −40.0% (2×) and −33.3% and −50.0% and −60.0%; % Change in PASI at Day 28 ([1]; topical cream 1.5% QD): −33.3% and −80.0% and −50.0%; Classification ([2]; 0.5% QD): Responder (individuals were classified as responders if they had >=50% improvement in psoriasis area severity index on day 84); also recorded: Non-Responder; Classification ([2]; 1.0% QD): Non-Responder; also recorded: Responder (individuals were classified as responders if they had >=50% improvement in psoriasis area severity index on day 84); Classification ([2]; 1.5% QD): Non-Responder; also recorded: Responder (individuals were classified as responders if they had >=50% improvement in psoriasis area severity index on day 84); % Change in PASI at Day 28 ([2]; topical cream 0.5% QD): −16.7% (2×) and −23.5% and −51.7% and −12.5% and −27.8%; % Change in PASI at Day 84 ([2]; topical cream 0.5% QD): −75% and −50% and −23.5% and −66.7% and −12.5% and −45.9%; % Change in PASI at Day 28 ([2]; topical cream 1.0% QD): −15.3% and 0% and 83.3%; % Change in PASI at Day 84 ([2]; topical cream 1.0% QD): 0% and −66.7% and 77.8%; % Change in PASI at Day 28 ([2]; topical cream 1.5% QD): −12.6% and −4.7% and −28% and −50% and −32%; % Change in PASI at Day 84 ([2]; topical cream 1.5% QD): −12.6% and −42.5% and −30% and −84.8% and −64%
